# Laboratory results: patent US20250215029A1 (Recludix Pharma, Inc., priority 2022, published 2025)
# Where two headings read alike, the source gives them in different places.
# Key:
# [1] = biological target: T1, Recombinant STAT6 protein (STAT6 (W123-T658)) (Homo sapiens, UniProt P42226); test: STAT6 Fluorescence Polarization (FP) Assay; assay type: binding; conditions: probe 5-FAM-Ap[…]-NH2 2 nM, 45-minute incubation
# T1 construct: Recombinant STAT6 protein (STAT6 (W123-T658))
# T1 sequence (P42226 123-658): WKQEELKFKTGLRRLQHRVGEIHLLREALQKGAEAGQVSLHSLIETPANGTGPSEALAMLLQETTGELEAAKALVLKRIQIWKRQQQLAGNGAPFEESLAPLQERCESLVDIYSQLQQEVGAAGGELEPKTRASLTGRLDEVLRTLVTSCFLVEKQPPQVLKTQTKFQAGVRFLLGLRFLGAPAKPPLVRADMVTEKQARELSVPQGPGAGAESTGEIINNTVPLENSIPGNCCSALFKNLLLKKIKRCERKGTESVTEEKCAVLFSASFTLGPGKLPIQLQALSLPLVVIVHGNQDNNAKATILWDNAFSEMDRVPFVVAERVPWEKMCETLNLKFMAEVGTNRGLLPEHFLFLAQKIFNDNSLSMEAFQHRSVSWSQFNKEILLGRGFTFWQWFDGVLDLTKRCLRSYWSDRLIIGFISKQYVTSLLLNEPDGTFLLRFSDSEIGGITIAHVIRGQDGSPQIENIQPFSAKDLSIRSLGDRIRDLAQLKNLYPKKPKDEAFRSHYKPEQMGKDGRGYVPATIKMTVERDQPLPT
# Procedure, shortened: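 Fluorescence polarization (mP) read-out: 250 nM STAT6 (W123-T658) plus 2 nM 5-FAM phosphotyrosine peptide, 45 min, room temperature, 1% DMSO. IC50 by nonlinear fit of mP against log compound concentration.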
# [2] = biological target: T2, Recombinant STAT3 protein (STAT3 (G127-I722)) (Homo sapiens, UniProt P40763); test: STAT3 Fluorescence Polarization (FP) Assay; assay type: binding; conditions: probe 5-FAM-GpYLPQTV-NH2 2 nM, 45-minute incubation
# T2 construct: Recombinant STAT3 protein (STAT3 (G127-I722))
# T2 sequence (P40763 127-722): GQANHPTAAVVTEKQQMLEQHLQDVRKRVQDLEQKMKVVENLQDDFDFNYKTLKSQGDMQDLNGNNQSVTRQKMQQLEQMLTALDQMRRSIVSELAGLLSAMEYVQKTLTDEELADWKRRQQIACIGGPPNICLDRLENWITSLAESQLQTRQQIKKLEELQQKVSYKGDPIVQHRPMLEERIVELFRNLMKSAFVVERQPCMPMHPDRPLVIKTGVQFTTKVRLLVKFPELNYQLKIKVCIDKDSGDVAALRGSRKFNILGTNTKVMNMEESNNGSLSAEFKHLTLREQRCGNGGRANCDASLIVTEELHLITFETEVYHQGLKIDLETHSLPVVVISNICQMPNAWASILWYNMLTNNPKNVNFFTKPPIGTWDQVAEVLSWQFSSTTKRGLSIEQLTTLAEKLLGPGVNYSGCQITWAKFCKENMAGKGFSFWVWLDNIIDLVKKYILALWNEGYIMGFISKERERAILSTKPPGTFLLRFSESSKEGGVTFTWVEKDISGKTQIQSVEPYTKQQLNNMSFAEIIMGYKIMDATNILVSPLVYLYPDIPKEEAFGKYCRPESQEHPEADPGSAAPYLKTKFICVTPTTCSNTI
# Procedure, shortened: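 Displacement of a fluorescent phosphotyrosine peptide (5-FAM-GpYLPQTV-NH2, 2 nM) from 25 nM recombinant STAT3 G127-I722 was monitored by FP after 45 min at room temperature.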
# [3] = STAT6 (W123-T658) 250 nM, read-out: STAT6 (FP assay IC50 class)
# [4] = STAT3 (G127-I722) 25 nM, read-out: STAT3 (FP assay IC50 class)
# [5] = STAT6 250 nM, read-out: STAT6 (FP assay IC50)
# [6] = STAT3 25 nM, read-out: STAT3 (FP assay IC50)
SMILES,"IC50 [1, 3]","IC50 [2, 4]","IC50 [1, 5]","IC50 [2, 6]"
"N#C[C@H]1CN(C(=O)[C@@H]2CC[C@@H]3CC[C@@H](N4CCC4)C[C@H](NC(=O)c4cc5cc(C(F)(F)P(=O)(O)O)ccc5s4)C(=O)N32)C[C@@H]1c1ccccc1 (mixture of isomers) [Compound 23, ((2-(((3S,6S,8R,10aS)-8-(azetidin-1-yl)-3-(rel- trans)-3-cyano-4-phenylpyrrolidine-1-carbonyl)-5-oxodecahydropyrrolo [1,2-a]azocin-6-yl)carbamoyl)benzo[b]thiophen-5-yl)difluoromethyl) phosphonic acid]",,,300 to 3000 nM,1000 to 10000 nM
"CN(C(=O)[C@@H]1CC[C@@H]2CCCC[C@H](NC(=O)c3cc4cc(C(F)(F)P(=O)(O)O)ccc4s3)C(=O)N21)c1ccc2nnccc2c1 [Compound 24, ((2-(((3S,6S,10aS)-3-(cinnolin-6-yl (methyl)carbamoyl)-5-oxodecahydropyrrolo [1,2-a]azocin-6-yl)carbamoyl)benzo[b]thiophen-5-yl)difluoromethyl) phosphonic acid]",,,≤ 300 nM,100 to 1000 nM
"O=C(N[C@H]1CCC[C@H]2CC[C@@H](C(=O)Nc3ccc(-c4ccccc4)cc3)N2C1=O)c1ccc2ccc(C(F)(F)P(=O)(O)O)cc2c1 [Compound 29, ((7-(((3S,6S,9aS)-3-([1,1′-biphenyl]-4-ylcarbamoyl)-5-oxooctahydro-1H-pyrrolo[1,2-a]azepin-6-yl)carbamoyl)naphthalen-2-yl)difluoromethyl) phosphonic acid]",,,3000 to 30000 nM,100 to 1000 nM
"C[C@]1(NC(=O)c2cc3cc(C(F)(F)P(=O)(O)O)ccc3s2)CCCC[C@H]2CC[C@@H](C(=O)N3C[C@H](c4ccccc4)[C@@H](C#N)C3)N2C1=O (relative stereo) [Compound 84, ((2-(((3S,6S,10aS)-3-(rel-(trans)-3-cyano-4-phenylpyrrolidine-1-carbonyl)-6-methyl-5-oxodecahydropyrrolo [1,2-a]azocin-6-yl)carbamoyl)benzo[b]thiophen-5-yl)difluoromethyl) phosphonic acid]",,,300 to 3000 nM,100 to 1000 nM
"O=C(N[C@H]1CCCC[C@H]2CC[C@@H](C(=O)N3CC(c4c[nH]cn4)C3)N2C1=O)c1cc2cc(C(F)(F)P(=O)(O)O)ccc2s1 [Compound 67, ((2-(((3S,6S,10aS)-3-(3-(1H-imidazol-4-yl)azetidine-1-carbonyl)-5-oxodecahydro-pyrrolo[1,2-a]azocin-6-yl)carbamoyl)benzo[b]thiophen-5-yl)difluoromethyl) phosphonic acid]",,,300 to 3000 nM,< 100 nM
"COc1ccn(C2CN(C(=O)[C@@H]3CC[C@@H]4CCC[C@H](NC(=O)c5cc6cc(C(F)P(=O)(O)O)ccc6s5)C(=O)N43)C2)n1 (stereo partly drawn) [Compound 633, (fluoro(2-(((3S,6S,9aS)-3-(3-(3-methoxy-1H-pyrazol-1-yl)azetidine-1-carbonyl)-5-oxooctahydro-1H-pyrrolo[1,2-a]azepin-6-yl)carbamoyl)benzo [b]thiophen-5-yl)methyl) phosphonic acid]",3000 to 30000 nM,100 to 1000 nM,,
"O=C(N[C@H]1CCCC[C@H]2CC[C@@H](C(=O)N3CC(NC(=O)C4CC4)(c4ccccn4)C3)N2C1=O)c1cc2cc(C(F)(F)P(=O)(O)O)ccc2s1 [Compound 123, ((2-(((3S,6S, 10aS)-3-(3-(cyclopropane-carboxamido)-3-(pyridin-2-yl)azetidine-1-carbonyl)-5-oxodeca-hydropyrrolo [1,2-a]azocin-6-yl)carbamoyl)benzo[b]thiophen-5-yl)difluoromethyl) phosphonic acid]",,,3000 to 30000 nM,< 100 nM
"O=C(N[C@H]1CCCC[C@H]2CC[C@@H](C(=O)N3CC(Oc4ccccc4)C3)N2C1=O)c1cc2cc(C(F)(F)P(=O)(O)O)ccc2s1 [Compound 39, (difluoro(2-(((3S,6S,10aS)-5-oxo-3-(3-phenoxyazetidine-1-carbonyl)decahydropyrrolo [1,2-a]azocin-6-yl)carbamoyl)benzo[b]thiophen-5-yl)methyl) phosphonic acid]",,,300 to 3000 nM,100 to 1000 nM
"O=C(N[C@H]1CCCC[C@H]2CC[C@@H](C(=O)NCc3cnc4[nH]cnc4c3)N2C1=O)c1cc2cc(CP(=O)(O)O)ccc2s1 [Compound 640, ((2-(((3S,6S,10aS)-3-(((3H-imidazo[4,5-b]pyridin-6-yl)methyl)carbamoyl)-5-oxodecahydropyrrolo [1,2-a]azocin-6-yl)carbamoyl)benzo [b]thiophen-5-yl)methyl) phosphonic acid]",3000 to 30000 nM,100 to 1000 nM,,
"O=C(N[C@H]1C[C@H](O)CC[C@H]2CC[C@@H](C(=O)N3CC(C(=O)N4CCOCC4)C3)N2C1=O)c1cc2cc(C(F)(F)P(=O)(O)O)ccc2s1 [Compound 3, (difluoro(2-(((3S,6S,8R, 10aR)-8-hydroxy-3-(3-(morpholine-4-carbonyl)azetidine-1-carbonyl)-5-oxodeca-hydropyrrolo[1,2-a]azocin-6-yl)carbamoyl)benzo[b]thiophen-5-yl)methyl)phosphonic acid]",,,3000 to 30000 nM,100 to 1000 nM

# Next, values leading:
"IC50 [1, 3]","IC50 [2, 4]","IC50 [1, 5]","IC50 [2, 6]",SMILES
≤ 300 nM,1000 to 10000 nM,,,"N#C[C@@H]1[C@@H](c2cccnc2)CN(C(=O)[C@@H]2CC[C@@H]3CCCC[C@H](NC(=O)c4cc5cc([C@H](F)P(=O)(O)O)ccc5s4)C(=O)N32)C12CC2 (single isomer, unassigned) [Compound 839]"
3000 to 30000 nM,< 100 nM,,,"CN(C)c1ncncc1C1CN(C(=O)[C@@H]2CC[C@@H]3CCC[C@H](NC(=O)c4cc5cc(C(F)P(=O)(O)O)ccc5s4)C(=O)N32)C1 (stereo partly drawn) [Compound 739, ((2-(((3S,6S,9aS)-3-(3-(4-(dimethylamino)pyrimidin-5-yl)azetidine-1-carbonyl)-5-oxooctahydro-1H-pyrrolo[1,2-a]azepin-6-yl)carbamoyl)benzo [b]thiophen-5-yl)fluoromethyl) phosphonic acid]"
300 to 3000 nM,100 to 1000 nM,,,"CC(c1cc[nH]c(=O)c1)N(C)C(=O)[C@@H]1CC[C@@H]2CCCC[C@H](NC(=O)c3cc4cc(C(F)(F)P(=O)(O)O)ccc4s3)C(=O)N21 (stereo partly drawn) [Compound 791, (difluoro(2-(((3S,6S,10aS)-3-(methyl(1-(2-oxo-1,2-dihydropyridin-4-yl)ethyl)carbamoyl)-5-oxodecahydropyrrolo [1,2-a]azocin-6-yl)carbamoyl)benzo [b]thiophen-5-yl)methyl) phosphonic acid]"
3000 to 30000 nM,100 to 1000 nM,,,"COc1cc(C2CN(C(=O)[C@@H]3CC[C@@H]4CCC[C@H](NC(=O)c5cc6cc([C@@H](F)P(=O)(O)O)ccc6s5)C(=O)N43)C2)ccn1 (single isomer, unassigned) [Compound 702]"
300 to 3000 nM,1000 to 10000 nM,,,"C/C1=C/[C@H]2CC[C@@H](C(=O)N3CC(c4ccccc4)CC34CC4)N2C(=O)[C@@H](NC(=O)c2ccc3ccc(CP(=O)(O)O)cc3c2)CC1 (stereo partly drawn) [Compound 885, ((7-(((3S,6S,10aR,Z)-9-methyl-5-oxo-3-(6-phenyl-4-azaspiro[2.4]heptane-4-carbonyl)-1,2,3,5,6,7,8,10a-octahydropyrrolo[1,2-a]azocin-6-yl)carbamoyl)naphthalen-2-yl)methyl) phosphonic acid]"
≤ 300 nM,100 to 1000 nM,,,"N#C[C@@H]1CN(C(=O)[C@@H]2CC[C@@H]3CCCC[C@H](NC(=O)c4cc5cc([C@H](F)P(=O)(O)O)ccc5s4)C(=O)N32)C[C@H]1c1cc[nH]c(=O)c1 (single isomer, unassigned) [Compound 872]"
3000 to 30000 nM,1000 to 10000 nM,,,"O=C(N[C@H]1CCC[C@H]2CC[C@@H](C(=O)N3CC(c4cccnc4)C3)N2C1=O)c1cc2cc(CP(=O)(O)O)ccc2[nH]1 [Compound 720, ((2-(((3S,6S,9aS)-5-oxo-3-(3-(pyridin-3-yl)azetidine-1-carbonyl)octahydro-1H-pyrrolo[1,2-a]azepin-6-yl)carbamoyl)-1H-indol-5-yl)methyl) phosphonic acid]"
300 to 3000 nM,< 100 nM,,,"Cc1ncccc1C1CN(C(=O)[C@@H]2CC[C@@H]3CCC[C@H](NC(=O)c4cc5cc(C(F)(F)P(=O)(O)O)ccc5s4)C(=O)N32)C1 [Compound 775, (difluoro(2-(((3S,6S,9aS)-3-(3-(2-methylpyridin-3-yl)azetidine-1-carbonyl)-5-oxooctahydro-1H-pyrrolo[1,2-a]azepin-6-yl)carbamoyl)benzo [b]thiophen-5-yl)methyl) phosphonic acid]"
